The text below walks through data of PubChem BioAssay AID651717 (Broad Institute, 2012).

This experiment concerns mESC Bmi1-luciferase reporter, firefly/renilla ratio, 24 h. The experiment can be described thus: compounds raising Bmi1 reporter signal – mouse embryonic stem cells, luciferase, cherry-pick, esBAF inhibitor project, dose response (AID 651717).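 Further: luciferase knocked into Bmi1 locus with EF-1a renilla as cell number control; rising ratio signals esBAF inhibition which derepresses Bmi1.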
With `O=C(CCCc1ccccn1)c1ccc(-c2ccccc2)cc1`, the AC40 is 4.03 µM. Take `CCCC(=O)Nc1sc2c(c1C#N)CCCC2`: the AC40 was 19 µM. The same measure for `Cc1cccc(-c2noc(Cc3ccccc3)n2)c1`: 2.87 µM; for `CC(=O)Nc1ccc(CNc2nc3cc(-c4ccc(F)cc4)sc3c(=O)n2C)cc1`: 1.69 µM; for `Cc1ccc(-c2nc(COC(=O)c3c(C)noc3C)cs2)cc1`: 4.93 µM. For `COc1ccc(S(=O)(=O)Nc2cc(C(=O)NC3CCCCCC3)ccc2N2CCOCC2)cc1`, the AC40 is 7.61 µM. With `NC(=O)C1CCN(c2nc(-c3cccc(N)c3)cs2)CC1`, the AC40 was 1.35 µM. In the case of `COc1ccccc1CCC(=O)Nc1nc2ccccc2[nH]1`, the AC40 was 3 µM.

For `COC(=O)Cc1ccc(OCc2ccc(Cl)nc2)cc1`, the AC40 was 6.74 µM. Next, `O=C(CCNS(=O)(=O)c1cccs1)N1CCc2ccccc2C1`: 6.72 µM; `CN(C)c1ccc(C(=O)c2ccccc2)cc1`: 2.69 µM; `CN=Cc1cc(-c2ccccc2)sc1O`: 12.9 µM. Next, `COc1cccc(OCc2cc(C(=O)N(C)Cc3nc4ccccc4[nH]3)no2)c1`: 2.78 µM; `COC(=O)c1c(-c2ccc(SC)cc2)sc2ccccc12`: 14.3 µM; `CCn1c(C)nc2cc(C(=O)NN=Cc3ccccc3OC(F)F)ccc21`: 1.96 µM.

Take `Cc1ccc2nc(-c3cccc(S(=O)(=O)N4CCCC4)c3)cn2c1`: the AC40 was 23.2 µM. With `O=C(CCNC(=O)c1ccccc1)Nc1nc2ccccc2s1`, the AC40 was 3.91 µM. The same measure for `CCc1nc(SCc2ccc(Br)cc2)n[nH]1`: 2.5 µM.

For the compound `CC(C)C(=O)Nc1ccc(C(=O)c2ccccc2)cc1`, the AC40 is 8.18 µM. Turning to `COc1ccc(Nc2ncnc3sc(C)cc23)cc1`, the AC40 was 5.43 µM. The same measure for `COc1ccc(NC(=O)c2cc3sccc3n2Cc2ccc(F)cc2)cc1OC`: 13.8 µM.

On to `CN(CC(=O)Nc1cccc(F)c1)C(=O)c1sc2ccccc2c1Cl`, for which the AC40 was 23.3 µM.

As for `O=c1oc(-c2ccccc2)cc2ccccc12`, the AC40 was 3.89 µM. Next, `Nc1c(Cl)cc(N=Nc2ccccc2)cc1Cl`: 3.27 µM; `COc1ccc([C@@H](C)NC(=O)c2ccc3oc(C(C)C)nc3c2)cc1`: 9.81 µM; `Cc1ccc(C(=O)NCCc2nnc(SCC(=O)Nc3nc(-c4ccccc4)cs3)n2C)cc1`: 17.2 µM. On to `Cc1ccc(NCC(=O)N/N=C/c2cc3ccccc3nc2Cl)cc1`, for which the AC40 is 30.6 µM. Next, `c1ccc(CCNc2ccc3c(c2)Cc2ccccc2-3)nc1`: 1.53 µM; `O=C(c1ccncc1)N(c1ccc(N2CCOCC2)cc1)C(c1ccccc1)c1nc2ccccc2[nH]1` (stereo not given): 1.01 µM; `Cn1cnc(S(=O)(=O)N2CCCCC2c2cc(C(=O)Nc3ccc(F)c(Cl)c3)no2)c1` (stereo not given): 8.38 µM. `COc1ccc2nc3ccccc3[n+]([O-])c2c1`: the AC40 is 2.1 µM. Consider `COc1ccccc1NC(=O)Cn1nnc(-c2ccccc2NC(=O)c2cc3ccccc3oc2=O)n1`, for which the AC40 was 4.5 µM. On to `Cc1cc2oc(=O)cc(CN(C)Cc3ccccc3F)c2cc1Cl`, for which the AC40 is 4.33 µM. For `O=S(=O)(c1ccc2ccccc2c1)N1CCN(S(=O)(=O)c2c(F)cccc2F)CC1`, the AC40 was 1.26 µM. Next, `C/C(=N\O)c1ccc2c3ccccc3n(C)c2c1`: 3.32 µM. In the case of `CC(C)c1ccc(-c2nn(-c3ccccc3)cc2C2C(C#N)=C(N)OC3=C2C(=O)CC(C)(C)C3)cc1` (stereo not given), the AC40 is 29.1 µM. As to `O=C(c1ccc(Cl)cc1)c1cnc(-c2ccc(Cl)cc2)s1`, the AC40 is 2.84 µM. Next, `CCN(CC)S(=O)(=O)c1cccc(-c2cn3cc(C)ccc3n2)c1`: 4 µM; `CCCNC(=O)Nc1ccc2c(c1)C(=O)N(C)C[C@H](OC)[C@@H](C)CN(Cc1ccc(-c3ccccn3)cc1)[C@@H](C)CO2`: 14.1 µM. For `CCn1cnc2cc(NCc3ccc(OC)cc3)ccc21`, the AC40 was 0.992 µM. The same measure for `N/C(=N\OC(=O)CC1CCCCC1)c1ccccn1`: 3.84 µM. The same measure for `CCn1ccnc1CN(C)C(=O)c1cc(COc2ccccc2SC)on1`: 8.01 µM; for `Nc1n[nH]c(N)c1N=Nc1ccc(Cl)cc1`: 6.31 µM.

With `Cc1nc(-c2ccccc2)nc2[nH]ccc(=O)c12`, the AC40 is 4.23 µM. Regarding `COc1ccc(C(=O)/C=C(\C)Nc2ccc3c(c2)OCO3)cc1`, the AC40 was 1.85 µM.

For `CC(C)Cc1ccc(-c2ccc3nccn3c2)cc1`, the AC40 was 1.94 µM. Next, `C=CCSC1=NNC(c2ccc(C(C)(C)C)cc2)=NN1`: 8.49 µM; `COc1ccc(CC(=O)Nc2ccc(-c3cn4ccc(C)cc4n3)cc2)cc1`: 18.8 µM; `O=C(O)CCc1ccc(-c2ccc(Br)cc2)n1-c1cccc(O)c1`: 10.8 µM. The same measure for `O=C(c1ccc2ccccc2c1)N1CCN(Cc2ccccc2)CC1`: 9.83 µM; for `Cc1cc(-c2nnco2)c(C)n1-c1ccccc1`: 6.01 µM; for `Cc1ccc(OCc2cc(C(=O)NCCc3cccnc3)no2)cc1C`: 11.9 µM. For the compound `Cc1ccc(-c2noc(-c3ccccc3C(=O)N3CCN(C)CC3)n2)cc1`, the AC40 was 11.5 µM. Next, `O=c1cc(-c2ccccc2Cl)oc2cc(O)cc(O)c12`: 12 µM.

Turning to `COc1ccc2c(c1OC)C(=O)N1c3ccccc3SC21` (stereo not given), the AC40 is 0.438 µM. On to `Cc1noc(C)c1COC(=O)c1cc(C)n(-c2ccccc2)c1C`, for which the AC40 was 10 µM. With `COc1ccc(CNc2nc(NCc3ccc(OC)cc3)n(C(=O)c3ccccc3[N+](=O)[O-])n2)cc1`, the AC40 was 18.8 µM. Next, `CN(C)c1ccc(N=Nc2ccccc2C(=O)OCC(=O)Nc2ccccc2C(F)(F)F)cc1`: 4.61 µM; `CSc1nnc(NC(=O)C23CC4CC(CC(C4)C2)C3)s1`: 6.47 µM.

With `COc1ccc(C)c2sc(=NC(=O)c3cccc(N4C(=O)CCC4=O)c3)n(C)c12`, the AC40 is 1.81 µM. In the case of `O=C(Cc1ccccc1)N/N=C/c1ccccc1OCc1ccc(Cl)cc1`, the AC40 is 4.61 µM.

As to `C#CCSc1nnc(-c2ccc(O)cc2)o1`, the AC40 is 8.15 µM.

Take `Cc1ccnc(NC(=O)c2ccc(OCc3c(C)noc3C)cc2)c1`: the AC40 was 3.44 µM. The same measure for `O=C(Cc1c(O)c2ccccc2oc1=O)c1ccc(F)cc1`: 2 µM; for `CN(Cc1ccccn1)C(=O)c1cc(COc2ccc(F)c(F)c2)on1`: 3.82 µM. For `COC(=O)c1ccc(COC(=O)c2ccc(SC)cc2OC)cc1`, the AC40 was 8.51 µM. Regarding `Nc1nc(SCc2ccccc2)c2ncn(C3CCCCC3)c2n1`, the AC40 was 2.09 µM. `Clc1ccc(/C=N/Nc2nc(Cl)nc3ccccc23)cc1`: the AC40 is 1.35 µM. Consider `COc1ccc(CNC(=O)c2ccc3ccccc3n2)cc1`, for which the AC40 is 29.4 µM.

Turning to `O=C(NC1CCCCC1)N1CCc2ccccc2C1`, the AC40 was 6.76 µM.

As to `CC(=O)c1sc(Nc2ccc(Oc3ccccc3)cc2)nc1C`, the AC40 is 2.08 µM. On to `COc1cc2ccccc2cc1C(=O)NC1CCC(C)CC1` (stereo not given), for which the AC40 was 8.67 µM. Regarding `O=C(CN1CCCCC1)Nc1nc(-c2ccccc2)cs1`, the AC40 was 11.5 µM.

Regarding `Cn1c(SCc2ccccc2)nnc1-c1c[nH]c2ccccc12`, the AC40 was 17.9 µM.

Take `COc1ccccc1C=Cc1ccnc2ccccc12`: the AC40 is 7.65 µM. The same measure for `S=C1NC(c2ccccc2)=NCN1c1ccccc1`: 17.5 µM; for `CC1CCN(C(=O)CCc2nnc(-c3ccccc3)o2)CC1`: 4.2 µM. Turning to `COc1ccccc1CNC(=O)C[C@@H]1CC[C@@H]2[C@H](COC[C@H](O)CN2C(=O)Nc2ccc(Cl)cc2)O1`, the AC40 is 1.36 µM. Next, `O=C(NCCc1ccccc1)c1nccc2ccccc12`: 6.84 µM; `CCCC(=O)N1CCN(c2nc3ccc(Br)cc3s2)CC1`: 1.7 µM; `Oc1ccc(-c2nnc(SCc3ccccc3)o2)cc1`: 7.97 µM. Next, `COc1ccc2c(c1OC)C(=O)OC2Nc1nc(-c2cc3cc(Br)ccc3oc2=O)cs1` (stereo not given): 1.25 µM. The same measure for `O=C(Nc1ccc(SC(F)F)cc1)C12CCC(CC1)C2`: 5.66 µM; for `Cc1ccc(OCc2cc(C(=O)N3CCN(C4CCCCC4)CC3)no2)cc1C`: 10 µM. With `CC1CCc2c(sc(NC(=O)c3cccn3C)c2C(N)=O)C1` (stereo not given), the AC40 is 3.63 µM. Next, `COc1ccc(Cc2nc(-c3cccc(C)c3)no2)cc1`: 3.63 µM. Next, `CO[C@@H]1CN(C)C(=O)c2ccc(NC(=O)Nc3ccc4c(c3)OCO4)cc2OC[C@H](C)NC[C@@H]1C`: 5 µM; `CSc1nnc(NC(=O)c2cc3ccccc3oc2=O)s1`: 5.97 µM; `COc1ccccc1C(=O)Oc1ccccc1C(=O)Nc1ccccc1`: 5.18 µM. For `O=C(COC(=O)[C@H](Cc1c[nH]c2ccccc12)NC(=O)c1ccc(Cl)cc1)Nc1ccc2c(c1)OCO2`, the AC40 was 10.5 µM. Turning to `CN(c1cccc(NC(=O)c2ccc(C(C)(C)C)cc2)c1)S(C)(=O)=O`, the AC40 was 2.97 µM. In the case of `Cc1cc(Cl)ccc1OCc1nnc(-c2ccccc2C)o1`, the AC40 is 5.44 µM. Next, `Cc1csc(Nc2nc(N)c(C(=O)Nc3ccccc3)o2)n1`: 3.69 µM; `Cc1ccsc1CN(C)C(=O)C1CCC(=O)N(CCc2cccc(F)c2)C1` (stereo not given): 5.77 µM. The same measure for `COc1ccc(Cc2nnc(NC(=O)c3ccc(OC)cc3OC)s2)cc1`: 12.5 µM; for `Cc1c(C(=O)NCc2cccnc2)sc2nc(-c3ccc(F)cc3)cn12`: 12.2 µM.

`Cc1c(C(=O)N2CCCc3ccccc32)sc2nc(-c3ccccc3)cn12`: the AC40 was 12.5 µM. Turning to `CCCc1nc2c3ccccc3ccn2c1Cc1ccc(C)cc1`, the AC40 is 0.443 µM. The same measure for `CSCc1nc2sc(C(=O)Nc3nc(C)cs3)c(C)c2c(=O)[nH]1`: 4.19 µM; for `CN(CCc1ccccn1)C(=O)CCc1nnc(CCCc2ccccc2)o1`: 4.93 µM. Regarding `c1ccc(-c2nc3c(ccc4ccccc43)[nH]2)nc1`, the AC40 is 0.96 µM.

With `COc1ccccc1NC(=O)CSc1nc2sc3c(c2c(=O)n1-c1ccccc1)CCN(C)C3`, the AC40 was 19.1 µM. Take `NC(=O)c1ccc(OCc2ccccc2)nc1`: the AC40 is 5.4 µM. The same measure for `CCCCCCCSc1ncnc2[nH]ncc12`: 17.1 µM; for `O=C(Nc1ccccc1)c1cc(C2CCCN(C(=O)c3ccccc3)C2)on1` (stereo not given): 4.54 µM.
